Test results published in EP0813871A1, “Berberine derivates for inhibiting production of HSP47” (Kureha Chemical Industry Co., Ltd., priority 1996, dated 1997).
Structures can show the parent of a compound that is named as a salt.

Assays:
HSP47 = assay: Inhibition of HSP47 production in heat-shocked human cancer cell lines (Western blotting); type: cell-based; settings: Western blot, 20 µM
Method: The following various human cancer cell lines were cultured under 5% CO2, at 37 °C, except for the heat shock treatment period. The lung cancer cell line H69 (ATCC HTB 119), the stomach cancer cell line KATO III (ATCC HTB 103), the colon cancer cell line COLO 205 (ATCC CCL 222), and the prostate cancer cell line DU145 (ATCC HTB 81) were cultured in an RPMI1640 medium containing 10% inactivated FBS.
The breast cancer cell line MCF7 (ATCC HTB 22) was cultured in an RPMI1640 medium containing 10^-8 M β-estradiol and 10% inactivated FBS.
The kidney cancer cell line ACHN (ATCC CRL 1611) was cultured in an MEM medium containing 10% inactivated FBS.
The berberine hydrochloride of the formula (III) (the final concentration = 20 µM: Matsuura Yakugyo) was added to each medium of the above human cancer cell lines 2 days after the inoculation. After the berberine hydrochloride treatment for 24 hours, a heat shock was applied at 45 °C for 15 minutes, and the cells were then cultured at 37 °C overnight. The control tests were carried out by performing the above procedures except that the berberine hydrochloride was not added.
The cells treated in the above (2) were homogenized, and the amounts of HSP47 produced were measured by the Western blotting method.
The cells treated in the above (2) were washed with PBS(-), and 1 ml of lysis buffer [1.0% NP-40, 0.15 M sodium chloride, 50 mM Tris-HCl (pH 8.0), 5 mM-EDTA, 2 mM-N-ethylmaleimide, 2 mM phenylmethylsulfonyl fluoride, 2 µg/ml leupeptin, and 2 µg/ml pepstatin] was added. The whole was allowed to stand for 20 minutes on ice, and then centrifuged at 4 °C and 12000 rpm for 20 minutes. The resulting supernatant (10 µl) was added to 790 µl of PBS(-), and then 200 µl of a protein assay dye reagent solution (Dye Reagent Concentrate: Bio-Rad Laboratories, Catalogue No. 500-0006) was added. The whole was allowed to stand at room temperature for 5 minutes, and the absorbance at 595 nm was measured to determine the amounts of proteins.
For the SDS-polyacrylamide gel electrophoresis (SDS-PAGE) of the samples, the protein concentration of which were measured, aliquots containing the same amount of protein were loaded onto the gel. The SDS-PAGE was performed according to the Laemmli method. After the electrophoresis, the blotting and then blocking were carried out in accordance with the methods described in Example 1. More particularly, the gel was brought into contact with a 0.45 µm nitrocellulose membrane (Schleicher & Schuell, Catalogue No. 401196) at room temperature and 100 V, using a protein-transferring apparatus (Trans-Blot Electrophoretic Transfer Cell: Bio-Rad), and blotting was carried out for 3 hours. The blotting buffer used was same as that used in Example 1 (3). After blotting, the nitrocellulose membrane was incubated in a 10% skimmed milk-PBS(-) solution at room temperature for 30 minutes, to block non-specific bindings.
After blocking, the first antibody reaction was carried out on the nitrocellulose membrane, using a screener blotter (Sanplatec), and the anti-human-HSP47 rat polyclonal antibody prepared in Example 1. Thereafter, the nitrocellulose membrane was washed with two fresh PBS(-) solutions for 5 minutes, using a slow rocking shaker, and then with four fresh PBS(-)-0.1% Tween 20 (Bio-Rad, Catalogue No. 170-6531) solutions for 15 minutes, and finally, with two fresh PBS(-) solutions for 5 minutes.
After washing, the second antibody reaction was carried out for 2 hours, using 5 ml of a solution prepared by diluting a peroxidase-labeled goat anti-rat IgG antibody (Southern Biotechnology, Catalogue No. 3030-05) 5000-fold with a PBS(-) solution containing 2% skimmed milk. After the reaction, the nitrocellulose membrane was washed with two fresh PBS(-) solutions for 5 minutes, and with five fresh PBS(-)-0.1% Tween 20 solutions for 15 minutes, using a slow rocking shaker, and finally, with two fresh PBS(-) solutions for 5 minutes. […]

[1] = agent containing berberine as an active ingredient; cited from earlier work
mice = settings: P. acnes intraperitoneally, lipopolysaccharide intraperitoneally 7 days later; cited from earlier work

| SMILES | band of the molecular weight of approximately 47 kDa (HSP47; breast cancer cell line MCF7) | band of the molecular weight of approximately 47 kDa (HSP47; colon cancer cell line COLO 205) | band of the molecular weight of approximately 47 kDa (HSP47; kidney cancer cell line ACHN, in comparison with the control tests) | band of the molecular weight of approximately 47 kDa (HSP47; lung cancer cell line H69) | band of the molecular weight of approximately 47 kDa (HSP47; prostate cancer cell line DU145) | band of the molecular weight of approximately 47 kDa (HSP47; stomach cancer cell line KATO III) | anti-GEM (glomerular basement membrane) nephritis [1] | survival rate of mice (mice) |
| --- | --- | --- | --- | --- | --- | --- | --- | --- |
| COc1ccc2cc3[n+](cc2c1OC)CCc1cc2c(cc1-3)OCO2 [berberine hydrochloride] | no band of the molecular weight of approximately 47 kDa was detected | no band of the molecular weight of approximately 47 kDa was detected | faint | no band of the molecular weight of approximately 47 kDa was detected | no band of the molecular weight of approximately 47 kDa was detected | no band of the molecular weight of approximately 47 kDa was detected | – | – |
| COc1ccc2cc3[n+](cc2c1OC)CCc1cc2c(cc1-3)OCO2 [berberine] | – | – | – | – | – | – | effectively improved | effectively improved |
